For one series, the target named is DGAT2. Particulars: ASO.
The next series deals with SNHG14. The note with it: ASO.

Values joined by “and” are separate entries in the source; they are usually repeats but may differ in a detail not shown here. Equal values may be shown once. After the bases stand the sugars from the 5' end (letter, count) and the backbone: PS all phosphorothioate, else s phosphorothioate and o phosphodiester by linkage. Methylation of C is not given here. e = 2'-O-(2-methoxyethyl) (MOE); l = locked nucleic acid (LNA); d = 2'-deoxy (DNA)

For the sequence “CCGCGCAGGACCCCGGAGTA (sugars e5 d10 e5, PS)”, in the series with DGAT2 (HepG2, 0.12 µM), the target mRNA inhibition is 75%.

In the series with DGAT2 (HepG2, 0.12 µM), “ACCCCCTCAGGAAGGCACAG (sugars e5 d10 e5, PS)” had a target mRNA inhibition of 25%.

In the case of “GGACAGAGGTTCAACATCCA (sugars e5 d10 e5, PS)”, the target mRNA inhibition worked out at 58% in the series with DGAT2 (HepG2, 2.5 µM) and 89% in the series with DGAT2 (HepG2, 10 µM).

Regarding “AGCTGCAAGGATGACCTTGG (sugars e5 d10 e5, PS)”, the target mRNA inhibition with DGAT2 (HepG2, 2.5 µM) is 52%; with DGAT2 (HepG2, 10 µM), 34%.

Turning to “GGAGTTCTCGAATATCCCTA (sugars e5 d10 e5, PS)”, the target mRNA inhibition in the series with DGAT2 (HepG2, 2.5 µM) was 74% and 82% and 85%; with DGAT2 (HepG2, 10 µM) it was 90% and 94%.

For “GAGCAGGTTCATCTGCCTTG (sugars e5 d10 e5, PS)”, the target mRNA inhibition with DGAT2 (HepG2, 2.5 µM) was 81% and 61%; with DGAT2 (HepG2, 10 µM) it was 92% and 83%.

As to “TGATCTCATCAAGAGATAAC (sugars e5 d10 e5, PS)”, in the series with DGAT2 (HepG2, 0.12 µM), the target mRNA inhibition was determined as 17%.

With “GCTCAGAGACTCAGCCGCAC (sugars e2 d13 e5, PS)”, the target mRNA inhibition turned out to be 82% with DGAT2 (HepG2, 0.12 µM); 13% with DGAT2 (HepG2, 2.5 µM); 35% with DGAT2 (HepG2, 10 µM); 66% in the series with DGAT2 (HepG2, 20 µM).

Sequence “AATTTCCTTACAGGGTATTG (sugars e5 d10 e5, PS)” registered a target mRNA inhibition in the series with DGAT2 (HepG2, 0.12 µM) of 46%.

Consider “ACCAGCTGGATGGGAAAGTA (sugars e5 d10 e5, PS)”, for which, in the series with DGAT2 (HepG2, 0.12 µM), the target mRNA inhibition is 21%.

In the case of “GCAATGTTGCCATCATACTA (sugars e5 d10 e5, PS)”, the target mRNA inhibition with DGAT2 (HepG2, 2.5 µM) is 63%; in the series with DGAT2 (HepG2, 10 µM), 88%.

Take “GTTTCCTTTGAAATCCAATG (sugars e5 d10 e5, PS)”: the target mRNA inhibition with DGAT2 (HepG2, 2.5 µM) is 69% and 68%; with DGAT2 (HepG2, 10 µM), 90% and 81%.

The sequence “GGATGCTGGATCCAGTGCCC (sugars e5 d10 e5, PS)” showed a target mRNA inhibition with DGAT2 (HepG2, 0.12 µM) of 32%.

Take “CCTGCAGAAAAAGCAACCAA (sugars e5 d10 e5, PS)”: the target mRNA inhibition with DGAT2 (HepG2, 2.5 µM) stood at 30%; in the series with DGAT2 (HepG2, 10 µM) it was 75%.

In the series with DGAT2 (HepG2, 0.12 µM), “AGCAGGTTGTGTGTCTTCAC (sugars e2 d13 e5, PS)” came in with a target mRNA inhibition of 44%.

“TGGAGTAGGGCACCAGCCCC (sugars e5 d10 e5, PS)” gave a target mRNA inhibition in the series with DGAT2 (HepG2, 0.12 µM) of 28%.

The sequence “AGGCCCCTTCTGAAGAGGGA (sugars e5 d10 e5, PS)” came in with a target mRNA inhibition in the series with DGAT2 (HepG2, 0.12 µM) of 43%.

With “TGTGATGACTTCCCAGGGTC (sugars e5 d10 e5, PS)”, the target mRNA inhibition with DGAT2 (HepG2, 2.5 µM) was found to be 85%; in the series with DGAT2 (HepG2, 10 µM), 76%.

Consider “TGCACCTTGTATTAAATACT (sugars e5 d10 e5, PS)”, for which the target mRNA inhibition with DGAT2 (HepG2, 2.5 µM) is 76% and 65%; in the series with DGAT2 (HepG2, 10 µM) it was 93% and 87%.

With “CTCTCATTTCTTATCTTCAA (sugars e5 d10 e5, PS)”, the target mRNA inhibition in the series with DGAT2 (HepG2, 2.5 µM) turned out to be 70%; in the series with DGAT2 (HepG2, 10 µM), 93%.

For the sequence “GCGCAGGACCCCGGAGTAGG (sugars e5 d10 e5, PS)”, the target mRNA inhibition in the series with DGAT2 (HepG2, 0.12 µM) came out at 79%.

As for “GCTGATTACAAGCTGATTCT (sugars e5 d10 e5, PS)”, the target mRNA inhibition is 59% with DGAT2 (HepG2, 2.5 µM) and 76% with DGAT2 (HepG2, 10 µM).

In the case of “GCTTCAATAAATACCTTATC (sugars e5 d10 e5, PS)”, the target mRNA inhibition with DGAT2 (HepG2, 2.5 µM) is 84% and 74%; in the series with DGAT2 (HepG2, 10 µM), 92% and 97%.

As for “TCCAAAGATATAGTTCCTGG (sugars e5 d10 e5, PS)”, the target mRNA inhibition with DGAT2 (HepG2, 0.12 µM) was determined as 63%.

For the sequence “GGGCAGTCCTTTCCCCTGCA (sugars e5 d10 e5, PS)”, the target mRNA inhibition with DGAT2 (HepG2, 0.12 µM) was found to be 37%.

With “TCCCCAATATCATACTATCT (sugars e5 d10 e5, PS)”, the target mRNA inhibition with DGAT2 (HepG2, 2.5 µM) came out at 50%; with DGAT2 (HepG2, 10 µM), 88%.

“TGGAACTTCTTCTGGACCCA (sugars e5 d10 e5, PS)” showed a target mRNA inhibition with DGAT2 (HepG2, 0.12 µM) of 43%.

For the sequence “CAGGCCCCACTGCTTAGAGG (sugars e5 d10 e5, PS)”, the target mRNA inhibition with DGAT2 (HepG2, 0.12 µM) worked out at 48%.

Consider “AGTCCAAACACTCAGGTAGG (sugars e5 d10 e5, PS)”, for which the target mRNA inhibition stood at 66% with DGAT2 (HepG2, 2.5 µM) and 79% with DGAT2 (HepG2, 10 µM).

In the series with DGAT2 (HepG2, 0.12 µM), “GCTATAGAATCAGACAGACC (sugars e5 d10 e5, PS)” returned a target mRNA inhibition of 46%.

For the sequence “CCTACATCTCATACTTG (sugars l3 d12 l2, PS)”, in the series with SNHG14 (Mouse Primary Neuronal Cell, 0.005 µM), the target mRNA inhibition worked out at 96.1%.

Consider “CTGTATACACCATCCCA (sugars l1 d11 l2 d1 l2, PS)”, for which, in the series with SNHG14 (Human Neuronal Cell, 7.5 µM), the target mRNA inhibition stood at 53%.

Consider TGACATAACCATATAC (sugars l3 d10 l3, PS), for which the target mRNA inhibition with SNHG14 (Human Neuronal Cell, 0.2 µM) was found to be 20%; with SNHG14 (Human Neuronal Cell, 1 µM), 30%.

In the series with SNHG14 (Human Neuronal Cell, 7.5 µM), “TACTCTGCAATACACCA (sugars l1 d13 l3, PS)” returned a target mRNA inhibition of 60%.

As for “CTCTCCTCAAGATCAAC (sugars l3 d11 l3, PS)”, the target mRNA inhibition with SNHG14 (Human Neuronal Cell, 0.2 µM) came out at 23%; with SNHG14 (Human Neuronal Cell, 1 µM), 42%.

In the series with SNHG14 (Human Neuronal Cell, 7.5 µM), “TATACCTTTCTTTAACCCTT (sugars l2 d4 l1 d11 l2, PS)” yielded a target mRNA inhibition of 51%.

The record behind these values is the OligoGym collection.
